Drawing on patent publication US5061720A, “Substituted-4-thiazolidinone derivatives” (A. H. Robins Company, Inc., priority 1989, dated 1991), this text covers IC50 for seven compounds.

One may read the IC50 as the concentration that inhibits the measured activity by half. A high value points to weaker potency.

SMILES strings stand for the structures.

In the test the target is T1, cyclooxygenase (Ovis aries, UniProt P05979).
T1 construct: Lipid-depleted Sheep Seminal Vesicle Microsome Suspension; from tissue; host or cells: sheep seminal vesicle microsomes (lipid-depleted powder, detergent solubilized)
T1 sequence (P05979 25-600): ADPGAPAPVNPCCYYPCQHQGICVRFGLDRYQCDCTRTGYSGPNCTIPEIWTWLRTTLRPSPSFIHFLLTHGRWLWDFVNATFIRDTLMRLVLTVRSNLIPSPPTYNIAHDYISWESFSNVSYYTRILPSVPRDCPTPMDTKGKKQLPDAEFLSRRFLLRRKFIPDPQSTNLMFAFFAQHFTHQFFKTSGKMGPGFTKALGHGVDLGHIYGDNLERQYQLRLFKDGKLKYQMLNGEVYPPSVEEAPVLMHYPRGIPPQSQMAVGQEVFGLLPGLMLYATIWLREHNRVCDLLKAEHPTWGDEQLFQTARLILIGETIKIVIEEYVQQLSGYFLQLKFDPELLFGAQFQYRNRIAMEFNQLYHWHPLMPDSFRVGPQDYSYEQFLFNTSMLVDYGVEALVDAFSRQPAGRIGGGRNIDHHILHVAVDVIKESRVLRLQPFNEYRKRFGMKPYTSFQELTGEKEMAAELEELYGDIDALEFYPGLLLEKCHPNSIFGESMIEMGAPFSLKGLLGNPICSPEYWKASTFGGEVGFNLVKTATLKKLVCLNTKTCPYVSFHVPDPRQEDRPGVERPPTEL
Nature of the test: Cyclooxygenase Assay (polarigraphic oxygen consumption, lipid-depleted sheep seminal vesicle microsomes). To be noted: 30° C., 2 min incubation, ammonium arachidonate substrate. The test is classed as biochemical. How it is done:
Cyclooxygenase activity was determined polarigraphically with detergent solubilized, lipid-depleted sheep seminal vesical microsomes. Addition of test articles that inhibit cyclooxygenase, including reference standards, cause a decrease in the rate of oxygen consumption in the reactions. Cyclooxygenase activity is determined using the following procedures:
I. Preparation of Test Materials
1. Lipid-Depleted Sheep Seminal Vesicle Microsomal Powder. This preparation follows the procedure of G. Graff et al. J. Biol. Chem. 253, 7662 (1978).
2. Ammonium Arachidonate Solution. A 250 μL aliquot of 20.0 mM arachidonic acid in absolute ethanol and a 50-μL aliquot of concentrated ammonium hydroxide is placed into a test tube. The solvent and excess ammonium hydroxide is evaporated under a stream of nitrogen at room temperature. The ammonium arachidonate residue is dissolved in 500 μL of 100 mM 2-amino-2-hydroxymethyl-1,3-propanediol hydrochloride (Tris HCl) buffer (pH 8.0) by using a vortex mixer. The final concentration of ammonium arachidonate (working solution) is 10.0 mM.
3. Enzyme Buffer 100 mM Tris HCl (pH 8.0) containing 2.0 mM phenol, 5.0 mM ethylenediaminetetraacetic acid (EDTA), 5.0 mM diethyldithiocarbamic acid and 1.0% Tween 20.
4. Reaction Buffer 100 mM Tris HCl (pH 8.0) containing 2.0 μM hematin and 1.0 mM phenol (prepared daily).
5. Detergent Solubilized Lipid-depleted Sheep Seminal Vesicle Microsome Suspension. Ten mg (solid) of lipid-depleted microsomal powder from sheep seminal vesicles is suspended in 1.0 mL of enzyme buffer and kept at 4° C. until used.
6. Solutions of Test (Formula I compound) or Reference Articles. Test and reference articles are dissolved in the reaction buffer prepared in 4) or a solvent that will not interfere with cyclooxygenase activity, e.g., dimethylsulfoxide, ethanol or acetone.
II. Cyclooxygenase Inhibition Assay
Three mL of the reaction buffer and 20 μL of the microsomal enzyme suspension are placed in a Yellow Springs Instrument (YSI) oxygen chamber where the temperature is maintained at 30° C. by means of a temperature controlled circulating water bath. Aliquots of the solutions containing ≤[…] of Formula I compound (test article) or reference article [see 6) above] are added to the YSI chamber and incubated for 2 minutes. The reaction is initiated by addition of 30 μL of the 10 mM ammonium arachidonate solution and cyclooxygenase activity determined polarigraphically using an oxygen electrode by measuring the rate of oxygen consumption [Cook et al., Anal. Biochem 96 341-51 (1979) and Cook and Lands, Can. J. Biochem. 53, 1220-1231 (1975)].
Test, reference, and control articles were evaluated in triplicate. Cyclooxygenase activity was determined from the slope (mv/unit time) of the recorder tracing with 1 mV being proportional to a 2.34 μM change in oxygen concentration.
The IC50 (concentration of test or reference article that inhibits the reaction by 50%) was calculated from cumulative plots relating the extent of inhibition of cyclooxygenase activity in control group assays to increasing concentrations of test article. Where no inhibition exists, the IC50 is expressed as greater than the highest concentration of the drug tested.
Consider `CCCC[C@@H]1S[C@H](c2cccc(Oc3ccccc3)c2)N(CCCCCC(=O)OCC)C1=O` (relative stereo) [Example 51], for which the IC50 is 260 nM.

The compound `CCCC[C@@H]1S[C@@H](c2cccc(Oc3ccccc3)c2)NC1=O` (relative stereo) [Example 83, 5-Butyl-2-(3-phenoxyphenyl)-4-thiazolidinone] yielded an IC50 of 12000 nM.

`CCCCC1SC(c2cccc(Oc3ccccc3)c2)N(CCCCc2ccccc2)C1=O` (stereo not shown) [Example 1, 5-Butyl-2-(3-phenoxyphenyl)-3-(4-phenylbutyl)-4-thiazolidinone] registered an IC50 of 90 nM.

In the case of `CC1SC(c2cccc(Oc3ccccc3)c2)N(CCCCc2ccccc2)C1=O` (stereo not shown) [Example 7, 5-Methyl-2-(3-phenoxyphenyl)-3-(4-phenylbutyl)-4-thiazolidinone], the IC50 came to 1400 nM.

`CCCCC1SC(c2cccc(C(=O)c3ccccc3)c2)N(CCCCc2ccccc2)C1=O` (stereo not shown) [Example 8, 2-(3-Benzoylphenyl)-5-butyl-3-(4-phenylbutyl)-4-thiazolidinone] registered an IC50 of 10 nM.

In turn, `CCCCC1SC(c2cccc(Oc3ccccc3)c2)N(CCc2ccccc2)C1=O` (stereo not shown) [Example 17, 5-Butyl-2-(3-phenoxyphenyl)-3-(2-phenylethyl)-4-thiazolidinone] displayed a concentration for half-maximal inhibition (IC50) of 3400 nM.

The compound `CCCCC1SC(c2cccc(Oc3ccccc3)c2)N(CCCCC(=O)O)C1=O` (stereo not shown) [Example 45, 5-Butyl-4-oxo-2-(3-phenoxyphenyl)-3-thiazolidinepentanoic acid] returned an IC50 of 9300 nM.
